# According to patent US7273856B2, “Linear basic compounds having NK-2 antagonist activity and formulations thereof” (Menarini Ricerche S.P.A., priority 2001, dated 2007):
# Structures can show the parent of a compound that is named as a salt.
# Biological target: T1, human NK-2 receptor (Homo sapiens, UniProt P21452)
# T1 construct: expressed in transfected cells; host or cells: CHO (Chinese hamster ovary) cells, membranes
# T1 sequence (P21452 1-398): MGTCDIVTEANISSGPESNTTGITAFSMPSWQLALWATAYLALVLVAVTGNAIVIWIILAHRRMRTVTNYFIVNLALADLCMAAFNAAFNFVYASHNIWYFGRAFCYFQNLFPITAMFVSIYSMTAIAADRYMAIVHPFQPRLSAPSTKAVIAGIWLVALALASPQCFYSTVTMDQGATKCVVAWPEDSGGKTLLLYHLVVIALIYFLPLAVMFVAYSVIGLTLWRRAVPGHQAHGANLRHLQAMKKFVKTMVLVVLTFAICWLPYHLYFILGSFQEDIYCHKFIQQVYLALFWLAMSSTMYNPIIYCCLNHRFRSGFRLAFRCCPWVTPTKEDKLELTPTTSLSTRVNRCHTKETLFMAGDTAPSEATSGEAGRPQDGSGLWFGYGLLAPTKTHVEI
# Assay: binding test, affinity for the human NK-2 receptor, competition with [125I]NKA on transfected CHO cell membranes
# Conditions: CHO cell membranes transfected with NK-2 receptor of human ileum; [125I]NKA 100 pM; 30 min, 20° C.
# Description: The evaluation of the antagonist activity on NK-2 receptors has been assessed by binding and functional tests according to that already described in literature in relation to NK-2 antagonists.
# The test substances have been tested within a concentration range from 0.01 nM to 10 nM. At the end of the incubation time (30 min, 20° C.) the samples have been filtered and radioactivity has been determined using a gamma-counter.
Structure (SMILES),Ki,pKi
"O=C(NC1(C(=O)N[C@H](Cc2ccccc2)C(=O)NCCCN2CCOCC2)CCCC1)c1cc2ccc(Cl)c(Cl)c2s1 [Example 116, 6,7-Dichloro-benzo[b]thiophene-2-carboxylic acid {1-[1R-(3-morpholin-4-yl-propylcarbamoyl)-2-phenyl-ethylcarbamoyl]-cyclopentyl}-amide]",0.316 nM,
"NC1CCCCC1NC(=O)C1CCCC(NC(=O)C(Cc2ccccc2)NC(=O)C2(NC(=O)c3cc4ccccc4s3)CCCCC2)C1 (single isomer, unassigned) [Example 28]",0.0501 nM,
"N[C@@H]1CCCC[C@H]1NC(=O)[C@@H]1C[C@@H](NC(=O)[C@@H](Cc2ccccc2)NC(=O)C2(NC(=O)c3cc4ccccc4s3)CCCCC2)CN1 [Example 27, N^γ{N^α[N^α(benzo[b]thiophen-2-ylcarbonyl)-1-aminocyclohexane-1-carboxy]-D-phenylalanil}-(L-(4R)amino-proline-N-(1R,2R)-aminocyclohexyl) amide]",0.0631 nM,
"CN(C)[C@H]1CCCC[C@@H]1NC(=O)[C@@H]1CC[C@H](NC(=O)[C@@H](Cc2ccccc2)NC(=O)C2(NC(=O)c3cc4ccccc4n3C)CCCC2)C1 [Example 13, N^γ{N^α[N^α((methyl)indol-2-ylcarboxy)-1-aminocyclopentan-1-carboxy]-D-phenylalanyl}-(1R,3S)-3-aminocyclopentane-1-carboxylic-acid-N-((1S,2S)-2-dimethylaminocyclohexyl)amide hydrochloride salt]",1 nM,
"Cc1ccc2cc(C(=O)NC3(C(=O)N[C@H](Cc4ccccc4)C(=O)NCC4CCN(CC5CCOCC5)CC4)CCCC3)oc2c1 [Example 125, 6-Methyl-benzofuran-2-carboxylic acid [1-(2-phenyl-1R-{[1-(tetrahydro-pyran-4-ylmethyl)-piperidin-4-ylmethyl]-carbamoyl}-ethylcarbamoyl)-cyclopentyl]-amide]",0.251 nM,
"CC(C)N1CCC(CNC(=O)[C@@H](Cc2ccccc2)NC(=O)C2(NC(=O)c3cc4ccccc4s3)CCCC2)CC1 [Example 70, Benzo[b]thiophene-2-carboxylic acid (1-{1-(R)-[(1-isopropyl-piperidin-4-ylmethyl)-carbamoyl]-2-phenyl-ethylcarbamoyl}-cyclopentyl)-amide]",1.58 nM,
"O=C(NC1(C(=O)N[C@H](Cc2ccccc2)C(=O)NCC2CCN(CC3CCOCC3)CC2)CCCC1)c1cc2cc(F)ccc2o1 [Example 121, 5-Fluoro-benzofuran-2-carboxylic acid [1-(2-phenyl-1R-{[1-(tetrahydro-pyran-4-ylmethyl)-piperidin-4-ylmethyl]-carbamoyl}-ethylcarbamoyl)-cyclopentyl]-amide]",0.501 nM,
"O=C(NC1(C(=O)N[C@H](Cc2ccccc2)C(=O)NCC2CCN(CC3CCOCC3)CC2)CCCC1)c1cc2cc(Cl)ccc2o1 [Example 122, 5-Chloro-benzofuran-2-carboxylic acid [1-(2-phenyl-1R-{[1-(tetrahydro-pyran-4 ylmethyl)-piperidin-4-ylmethyl]-carbamoyl}-ethylcarbamoyl)cyclopentyl]-amide]",0.1 nM,
"N#CCN1CCC(CCNC(=O)[C@@H](Cc2ccccc2)NC(=O)C2(NC(=O)c3cc4ccccc4s3)CCCC2)CC1 [Example 87, Benzo[b]thiophene-2-carboxylic acid (1-{1(R)-[2-(1-cyanomethyl-piperidin-4-yl)-ethylcarbamoyl]-2-phenyl-ethylcarbamoyl}-cyclopentyl)-amide TFA salt]",1.26 nM,
N[C@H]1CCCC[C@@H]1NC[C@@H]1CC[C@H](NC(=O)[C@@H](Cc2ccccc2)NC(=O)C2(NC(=O)c3cc4ccccc4s3)CCCC2)C1 [Example 38],,9.5
"O=C(NC1(C(=O)N[C@H](Cc2ccccc2)C(=O)NCC2CCN(CC3CCOCC3)CC2)CCCC1)c1cc2cccc(Br)c2s1 [Example 131, 7-Bromo-benzo[b]thiophene-2-carboxylic acid [1-(2-phenyl-1R-{[1-(tetrahydro-pyran-4-ylmethyl)-piperidin-4-ylmethyl]-carbamoyl}-ethylcarbamoyl)-cyclopentyl]-amide]",0.0398 nM,
"CN(C)[C@H]1CCCC[C@@H]1NC(=O)[C@@H]1CC[C@H](NC(=O)[C@@H](Cc2ccccc2)NC(=O)C2(NC(=O)c3ccc(-c4ccccc4)cc3)CCCC2)C1 [Example 12, N^γ{N^α[N^α(biphen-4-ylcarbonyl)-1-aminocyclopentan-1-carboxy]-D-phenylalanyl}-(1R,3S)-3-aminocyclopentane-1-carboxylic-acid-N-((1S,2S)-2-dimethylaminocyclohexyl)amide hydrochloride salt]",0.316 nM,
"Cc1ccc(C[C@@H](NC(=O)C2(NC(=O)c3cc4ccccc4n3C)CCCC2)C(=O)N[C@H]2CC[C@@H](C(=O)N[C@H]3CCCC[C@@H]3N)C2)cc1 [Example 17, N^γ{N^α[N^α(N-(methyl)indol-2-ylcarboxy)-1-aminocyclopentan-1-carboxy]-R-3-(4-methyl)phenyl)alanyl}-(1R,3S)-3-aminocyclopentane-1-carboxylic-acid-N-((1S,2S)-2-aminocyclohexyl)amide hydrochloride salt]",2.51 nM,
"NC1(C(=O)N2CCC(CNC(=O)[C@@H](Cc3ccccc3)NC(=O)C3(NC(=O)c4cc5ccccc5s4)CCCC3)CC2)CCCC1 [Example 63, Benzo[b]thiophene-2-carboxylic acid [1-(1(R)-{[1-(1-amino-cyclopentanecarbonyl)piperidin-4-ylmethyl]-carbamoyl}-2-phenyl-ethylcarbamoyl)-cyclopentyl]-amide]",0.631 nM,
O=C(NC1(C(=O)N[C@H](Cc2ccccc2)C(=O)NCC2CCN(CC3CCOCC3)CC2)CCCC1)c1cc2ccc(Cl)cc2o1 [Example 120],0.316 nM,
"COC1CCN(CCCNC(=O)[C@@H](Cc2ccccc2)NC(=O)C2(NC(=O)c3cc4ccccc4s3)CCCC2)CC1 [Example 53, Benzo[b]thiophene-2-carboxylic acid (1-{1(R)-[3-(4-methoxy-piperidin-1-yl)-propylcarbamoyl]-2-phenyl-ethylcarbamoyl}-cyclopentyl)-amide TFA salt]",2.51 nM,
"O=C(NC1(C(=O)N[C@@H](CNCCC2CCN(C(=O)Cc3cccs3)CC2)Cc2ccccc2)CCCC1)c1cc2ccccc2s1 [Example 94, Benzo[b]thiophene-2-carboxylic acid [1-(1(R)benzyl-2-{2-[1-(thiophen-2-yl-acetyl)-piperidin-4-yl]-ethylamino}-ethylcarbamoyl)-cyclopentyl]-amide TFA salt]",0.631 nM,
NC1CCCCC1NC(=O)[C@@H]1C[C@@H](NC(=O)[C@@H](Cc2ccccc2)NC(=O)C2(NC(=O)c3cc4ccccc4s3)CCCC2)CN1 (relative stereo) [Example 36],,10.6
"O=C(NC1(C(=O)N[C@H](Cc2ccccc2)C(=O)NCC2CCN(C3CCOCC3)CC2)CCCC1)c1ccc2cc(Br)ccc2c1 [Example 80, 6-Bromo-naphthalene-2-carboxylic acid [1-(2-phenyl-1(R)-{[1-(tetrahydro-pyran-4-yl)-piperidin-4-ylmethyl]-carbamoyl}-ethylcarbamoyl)-cyclopentyl]-amide]",0.251 nM,
"CC(C)(C)c1cccc2cc(C(=O)NC3(C(=O)N[C@H](Cc4ccccc4)C(=O)NCC4CCN(CC5CCOCC5)CC4)CCCC3)oc12 [Example 124, 7-tert-Butyl-benzofuran-2-carboxylic acid [1-(2-phenyl-1R-{[1-(tetrahydro-pyran-4 ylmethyl)-piperidin-4-ylmethyl]-carbamoyl}-ethylcarbamoyl)-cyclopentyl]-amide]",0.1 nM,
